These compounds were tested against human RAF1 (Homo sapiens, UniProt P04049) (assay: Protein kinase assay (33P-ATP filter binding), human RAF1, 10-dose IC50). Settings: MEK1 (K97R) substrate 3 micromolar, ATP 10 micromolar, read-out: RAF-1 IC50.
Format: biochemical
Procedure, shortened: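 Human RAF1 phosphorylated human MEK1 (K97R) substrate at 3 µM with 10 µM ATP (³³P), in pH 7.5 HEPES buffer with MgCl2, EGTA, Brij35, BSA, Na3VO4 and DTT. Reactions ran for 2 hr at room temperature with P81 filter capture.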

human RAF1, sequence (P04049 whole entry): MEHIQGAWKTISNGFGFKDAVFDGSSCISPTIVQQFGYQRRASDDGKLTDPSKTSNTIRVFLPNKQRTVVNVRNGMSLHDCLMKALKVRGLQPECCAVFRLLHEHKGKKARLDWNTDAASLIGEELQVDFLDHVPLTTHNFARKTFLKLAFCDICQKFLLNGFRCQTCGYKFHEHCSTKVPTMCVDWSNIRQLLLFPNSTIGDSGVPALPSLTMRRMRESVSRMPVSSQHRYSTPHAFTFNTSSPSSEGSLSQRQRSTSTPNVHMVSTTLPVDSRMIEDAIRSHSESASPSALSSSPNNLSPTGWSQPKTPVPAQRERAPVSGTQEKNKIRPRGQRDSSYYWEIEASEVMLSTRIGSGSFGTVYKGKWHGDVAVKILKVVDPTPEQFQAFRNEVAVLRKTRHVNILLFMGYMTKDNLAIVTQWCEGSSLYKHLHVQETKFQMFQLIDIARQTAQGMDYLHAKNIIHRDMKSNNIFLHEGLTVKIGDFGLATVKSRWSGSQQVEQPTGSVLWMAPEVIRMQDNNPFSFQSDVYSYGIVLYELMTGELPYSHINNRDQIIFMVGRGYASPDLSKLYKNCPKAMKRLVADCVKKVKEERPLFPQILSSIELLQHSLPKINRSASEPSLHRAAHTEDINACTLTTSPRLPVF

Row | Structure (SMILES) | IC50 [µM]
1 | Cc1cc(F)c(NC(=O)N2CCCC(O)(C(F)(F)F)C2)cc1-c1cc(OCCO)nc(N2CCOCC2)c1 (centres unmarked) [Example 25, N-(2-fluoro-5-(2-(2-hydroxyethoxy)-6-morpholinopyridin-4-yl)-4-methylphenyl)-3-hydroxy-3-(trifluoromethyl)piperidine-1-carboxamide] | 0.01 to 0.1
2 | Cc1cc(F)c(NC(=O)N2CCC3(CCC3)C2)cc1-c1cc(OCCO)nc(N2CCOCC2)c1 [Example 26, N-[2-fluoro-5-[2-(2-hydroxyethoxy)-6-(morpholin-4-yl)pyridin-4-yl]-4-methylphenyl]-6-azaspiro[3.4]octane-6-carboxamide] | < 0.01
3 | Cc1cc(F)c(NC(=O)N2CCCC3(COC3)C2)cc1-c1cc(OCCO)nc(N2CCOCC2)c1 [Example 27, N-[2-fluoro-5-[2-(2-hydroxyethoxy)-6-(morpholin-4-yl)pyridin-4-yl]-4-methylphenyl]-2-oxa-6-azaspiro[3.5]nonane-6-carboxamide] | 0.01 to 0.1
4 | Cc1cc(F)c(NC(=O)N2CC3C(C2)C3(F)F)cc1-c1cc(OCCO)nc(N2CCOCC2)c1 (centres unmarked) [Example 28, 6,6-difluoro-N-[2-fluoro-5-[2-(2-hydroxyethoxy)-6-(morpholin-4-yl)pyridin-4-yl]-4-mehtylphenyl]-3-azabicyclo[3.1.0]hexane-3-carboxamide] | 0.01 to 0.1
5 | Cc1cc(F)c(NC(=O)NCC(F)(F)C(F)(F)F)cc1-c1cc(OCCO)nc(N2CCOCC2)c1 [Example 35, 1-[2-fluoro-5-[2-(2-hydroxyethoxy)-6-(morpholin-4-yl)pyridin-4-yl]-4-methylphenyl]-3-(2,2,3,3,3-pentafluoropropyl)urea] | < 0.01
6 | Cc1cc(F)c(NC(=O)N2CC[C@H](CC(F)(F)F)C2)cc1-c1cc(OCCO)nc(N2CCOCC2)c1 [Example 36, (3R)-N-[2-fluoro-5-[2-(2-hydroxyethoxy)-6-(morpholin-4-yl)pyridin-4-yl]-4-methylphenyl]-3-(2,2,2-trifluoroethyl)pyrrolidine-1-carboxamide] | < 0.01
7 | Cc1cc(F)c(NC(=O)N2CCCC3(CCC3)C2)cc1-c1cc(OCCO)nc(N2CCOCC2)c1 [Example 38, N-[2-fluoro-5-[2-(2-hydroxyethoxy)-6-(morpholin-4-yl)pyridin-4-yl]-4-methylphenyl]-6-azaspiro[3.5]nonane-6-carboxamide] | < 0.01
8 | Cc1cc(F)c(NC(=O)N2C[C@@H](N)C[C@@H](C(F)(F)F)C2)cc1-c1cc(OCCO)nc(N2CCOCC2)c1 [Example 40, (3S,5R)-3-amino-N-[2-fluoro-5-[2-(2-hydroxyethoxy)-6-(morpholin-4-yl)pyridin-4-yl]-4-methylphenyl]-5-(trifluoromethyl)piperidine-1-carboxamide] | < 0.01
9 | Cc1cc(F)c(NC(=O)N2CCC3(COC3)C2)cc1-c1cc(OCCO)nc(N2CCOCC2)c1 [Example 41, N-[2-fluoro-5-[2-(2-hydroxyethoxy)-6-(morpholin-4-yl)pyridin-4-yl]-4-methylphenyl]-2-oxa-6-azaspiro[3.4]octane-6-carboxamide] | 0.01 to 0.1
10 | COC1(C(F)(F)F)CCCN(C(=O)Nc2cc(-c3cc(OCCO)nc(N4CCOCC4)c3)c(C)cc2F)C1 (centres unmarked) [Example 42, N-[2-fluoro-5-[2-(2-hydroxyethoxy)-6-(morpholin-4-yl)pyridin-4-yl]-4-methylphenyl]-3-methoxy-3-(trifluoromethyl)piperidine-1-carboxamide] | < 0.01
11 | Cc1cc(F)c(NC(=O)NC2CC2C(F)(F)F)cc1-c1cc(OCCO)nc(N2CCOCC2)c1 (centres unmarked) [Example 43, 1-[2-fluoro-5-[2-(2-hydroxyethoxy)-6-(morpholin-4-yl)pyridin-4-yl]-4-methylphenyl]-3-[2-(trifluoromethyl)cyclopropyl]urea] | < 0.01
12 | Cc1cc(F)c(NC(=O)N2C[C@@H](O)C[C@@H](C(F)(F)F)C2)cc1-c1cc(OCCO)nc(N2CCOCC2)c1 [Example 44, (3S,5R)-N-[2-fluoro-5-[2-(2-hydroxyethoxy)-6-(morpholin-4-yl)pyridin-4-yl]-4-methylphenyl]-3-hydroxy-5-(trifluoromethyl) piperidine-1-carboxamide] | < 0.01
13 | Cc1cc(F)c(NC(=O)N2CCC(CF)(C(F)(F)F)C2)cc1-c1cc(OCCO)nc(N2CCOCC2)c1 (centres unmarked) [Example 45, N-[2-fluoro-5-[2-(2-hydroxyethoxy)-6-(morpholin-4-yl)pyridin-4-yl]-4-methylphenyl]-3-(fluoromethyl)-3-(trifluoromethyl)pyrrolidine-1-carboxamide] | < 0.01
14 | Cc1cc(F)c(NC(=O)N2CCCCC(F)(F)C2)cc1-c1cc(OCCO)nc(N2CCOCC2)c1 [Example 46, 3,3-difluoro-N-[2-fluoro-5-[2-(2-hydroxyethoxy)-6-(morpholin-4-yl)pyridin-4-yl]-4-methylphenyl]azepane-1-carboxamide] | 0.01 to 0.1
15 | Cc1cc(F)c(NC(=O)NCC2(C(F)(F)F)CCC2)cc1-c1cc(OCCO)nc(N2CCOCC2)c1 [Example 49, 1-[2-fluoro-5-[2-(2-hydroxyethoxy)-6-(morpholin-4-yl)pyridin-4-yl]-4-methylphenyl]-3-[[1-(trifluoromethyl)cyclobutyl]methyl]urea] | < 0.01
16 | Cc1cc(F)c(NC(=O)N2CCCC(N)(C(F)(F)F)C2)cc1-c1cc(OCCO)nc(N2CCOCC2)c1 (centres unmarked) [Example 54, 3-amino-N-[2-fluoro-5-[2-(2-hydroxyethoxy)-6-(morpholin-4-yl)pyridin-4-yl]-4-methylphenyl]-3-(trifluoromethyl)piperiidne-1-carboxamide] | < 0.01
17 | Cc1cc(F)c(NC(=O)N2C[C@H](N)C[C@H](C(F)(F)F)C2)cc1-c1cc(OCCO)nc(N2CCOCC2)c1 [Example 55, (3R,5S)-3-amino-N-[2-fluoro-5-[2-(2-hydroxyethoxy)-6-(morpholin-4-yl)pyridin-4-yl]-4-methylphenyl]-5-(trifluoromethyl)piperidine-1-carboxamide] | < 0.01
18 | Cc1cc(F)c(NC(=O)NC(C)CC(F)(F)F)cc1-c1cc(OCCO)nc(N2CCOCC2)c1 (centres unmarked) [Example 57, 1-[2-fluoro-5-[2-(2-hydroxyethoxy)-6-(morpholin-4-yl)pyridin-4-yl]-4-methylphenyl]-3-(4,4,4-trifluorobutan-2-yl)urea] | < 0.01
19 | Cc1cc(F)c(NC(=O)N2CC=C(C(F)(F)F)C2)cc1-c1cc(OCCO)nc(N2CCOCC2)c1 [Example 72, N-[2-fluoro-5-[2-(2-hydroxyethoxy)-6-(morpholin-4-yl)pyriidn-4-yl]-4-methylphenyl]-3-(trifluoromethyl)-2,5-dihydropyrrole-1-carboxamide] | < 0.01
20 | Cc1cc(F)c(NC(=O)N2CCC3(CCCC3)C2)cc1-c1cc(OCCO)nc(N2CCOCC2)c1 [Example 73, N-(2-fluoro-5-(2-(2-hydroxyethoxy)-6-morpholinopyridin-4-yl)-4-methylphenyl)-2-azaspiro[4.4]nonane-2-carboxamide] | < 0.01
21 | Cc1cc(F)c(NC(=O)N2CCC(C(O)C(F)(F)F)C2)cc1-c1cc(OCCO)nc(N2CCOCC2)c1 (centres unmarked) [Example 76, N-[2-fluoro-5-[2-(2-hydroxyethoxy)-6-(morpholin-4-yl)pyridin-4-yl]-4-methylphenyl]-3-(2,2,2-trifluoro-1-hydroxyethyl)pyrrolidine-1-carboxamide] | < 0.01
22 | Cc1cc(F)c(NC(=O)N2CC=C(C(F)(F)C(F)(F)F)C2)cc1-c1cc(OCCO)nc(N2CCOCC2)c1 [Example 79, N-[2-fluoro-5-[2-(2-hydroxyethoxy)-6-(morpholin-4-yl)pyridin-4-yl]-4-methylphenyl]-3-(1,1,2,2,2-pentafluoroethyl)-2,5-dihydropyrrole-1-carboxamide] | < 0.01
23 | Cc1cc(F)c(NC(=O)N2CCO[C@@H](C(F)(F)F)C2)cc1-c1cnc(OC2CCOCC2)c(N2CCOCC2)c1 [Example 87, (2R)-N-[2-fluoro-4-methyl-5-[5-(morpholin-4-yl)-6-(oxan-4-yloxy)pyridin-3-yl]phenyl]-2-(trifluoromethyl)morpholine-4-carboxamide] | < 0.01
24 | Cc1cc(F)c(NC(=O)N2CC/C(=C/C(F)(F)F)C2)cc1-c1cc(OCCO)nc(N2CCOCC2)c1 [Example 92, (Z)-N-(2-fluoro-5-(2-(2-hydroxyethoxy)-6-morpholinopyridin-4-yl)-4-methylphenyl)-3-(2,2,2-trifluoroethylidene)pyrrolidine-1-carboxamide] | < 0.01
25 | Cc1cc(F)c(NC(=O)N2CC/C(=C\C(F)(F)F)C2)cc1-c1cc(OCCO)nc(N2CCOCC2)c1 [Example 93, (E)-N-(2-fluoro-5-(2-(2-hydroxyethoxy)-6-morpholinopyridin-4-yl)-4-methylphenyl)-3-(2,2,2-trifluoroethylidene)pyrrolidine-1-carboxamide] | < 0.01
26 | C/C(=C1\CCN(C(=O)Nc2cc(-c3cc(OCCO)nc(N4CCOCC4)c3)c(C)cc2F)C1)C(F)(F)F [Example 94, (3Z)-N-[2-fluoro-5-[2-(2-hydroxyethoxy)-6-(morpholin-4-yl)pyridin-4-yl]-4-methylphenyl]-3-(1,1,1-trifluoropropan-2-ylidene)pyrrolidine-1-carboxamide] | < 0.01
27 | C/C(=C1/CCN(C(=O)Nc2cc(-c3cc(OCCO)nc(N4CCOCC4)c3)c(C)cc2F)C1)C(F)(F)F [Example 95, (3E)-N-[2-fluoro-5-[2-(2-hydroxyethoxy)-6-(morpholin-4-yl)pyridin-4-yl]-4-methylphenyl]-3-(1,1,1-trifluoropropan-2-ylidene)pyrrolidine-1-carboxamide] | < 0.01
28 | Cc1cc(F)c(NC(=O)N2CC=C(CC(F)(F)F)C2)cc1-c1cc(OCCO)nc(N2CCOCC2)c1 [Example 96, N-[2-fluoro-5-[2-(2-hydroxyethoxy)-6-(morpholin-4-yl)pyridin-4-yl]-4-methylphenyl]-3-(2,2,2-trifluoroethyl)-2,5-dihydropyrrole-1-carboxamide] | < 0.01
29 | C/C(C#N)=C1/CCN(C(=O)Nc2cc(-c3cc(OCCO)nc(N4CCOCC4)c3)c(C)cc2F)C1 [Example 98, (3E)-3-(1-cyanoethylidene)-N-[2-fluoro-5-[2-(2-hydroxyethoxy)-6-(morpholin-4-yl)pyridin-4-yl]-4-methylphenyl]pyrrolidine-1-carboxamide] | < 0.01

— patent publication US20230081390A1, “INHIBITORS OF RAF KINASES” (Kinnate Biopharma Inc., priority 2019, published 2023)
